Bridge positions count the residues as written; N and C are the ends. Square brackets hold non-standard residues; d marks the D form. Peptide text beside a SMILES is read from it. 1Nal = N[C@@H](Cc1cccc2ccccc12)C(=O)O
What was measured:
[1] = system: thapsigargin-induced IFN-g production in human whole blood; type: cell-based; details: read-out: Analogue Activity (IC50) WB/IFNg
[2] = system: thapsigargin-induced IL-2 production in human whole blood; details: read-out: Analogue Activity (IC50) WB/IL-2

| Compound | IC50 [1] | IC50 [2] |
| --- | --- | --- |
| CC[C@H](C)[C@@H]1NC(=O)[C@H](CCCCN)NC(=O)[C@@H](NC(=O)[C@H](CCCCN)NC(=O)[C@@H](NC(=O)[C@H](CC(N)=O)NC(=O)[C@@H](NC(=O)[C@@H](NC(=O)[C@H](CCCNC(=N)N)NC(=O)CN)[C@@H](C)CC)[C@@H](C)CC)C(C)C)CSSC[C@@H]2NC(=O)[C@H](CCCCN)NC(=O)CNC(=O)[C@H](Cc3ccccc3)NC(=O)[C@H](CCCNC(=N)N)NC(=O)[C@H](CCSC)NC(=O)CNC(=O)[C@H](C)NC(=O)[C@H](CCCCN)NC(=O)[C@H](CCCCN)NC(=O)[C@@H]3CSSC[C@@H](C(=O)N[C@H](C(=O)N4CCC[C@H]4C(=O)N[C@@H](CCCCN)C(=O)O)[C@@H](C)O)NC(=O)[C@H](Cc4c[nH]cn4)NC(=O)[C@H](CSSC[C@H](NC(=O)[C@H](CCC(N)=O)NC(=O)[C@H](CCCNC(=N)N)NC(=O)[C@H](CO)NC1=O)C(=O)N[C@@H](CC(C)C)C(=O)N[C@@H](CCC(=O)O)C(=O)N1CCC[C@H]1C(=O)N3)NC(=O)[C@H](CCCCN)NC(=O)CNC(=O)[C@H](CC(N)=O)NC(=O)[C@H](CCSC)NC2=O [V2R] (H-GRIINVKCKISRQCLEPCKKAGMRFGKCMNGKCHCTPK-OH; disulfide 8-28, 14-33, 18-35) | 0.986 nM | 0.775 nM |
| CC[C@H](C)[C@@H]1NC(=O)[C@H](CCC(=O)O)NC(=O)[C@@H](NC(=O)[C@H](CCCCN)NC(=O)[C@@H](NC(=O)[C@H](CC(N)=O)NC(=O)[C@@H](NC(=O)[C@@H](NC(=O)[C@@H](NC(=O)CN)C(C)C)[C@@H](C)CC)[C@@H](C)CC)C(C)C)CSSC[C@@H]2NC(=O)[C@H](CCCCN)NC(=O)CNC(=O)[C@H](Cc3ccccc3)NC(=O)[C@H](CCCNC(=N)N)NC(=O)[C@H](CCSC)NC(=O)CNC(=O)[C@H](C)NC(=O)[C@H](CCCCN)NC(=O)[C@H](CCCCN)NC(=O)[C@@H]3CSSC[C@@H](C(=O)N[C@H](C(=O)N4CCC[C@H]4C(=O)N[C@@H](CCCCN)C(=O)O)[C@@H](C)O)NC(=O)[C@H](Cc4c[nH]cn4)NC(=O)[C@H](CSSC[C@H](NC(=O)[C@H](CCC(N)=O)NC(=O)[C@H](CCCNC(=N)N)NC(=O)[C@H](CO)NC1=O)C(=O)N[C@@H](CC(C)C)C(=O)N[C@@H](CCC(=O)O)C(=O)N1CCC[C@H]1C(=O)N3)NC(=O)[C@H](CCCCN)NC(=O)CNC(=O)[C@H](CC(N)=O)NC(=O)[C@H](CCSC)NC2=O [K9E] (H-GVIINVKCEISRQCLEPCKKAGMRFGKCMNGKCHCTPK-OH; disulfide 8-28, 14-33, 18-35) | 0.171 nM | 0.179 nM |
| CC[C@H](C)[C@@H]1NC(=O)[C@H](CCCCN)NC(=O)[C@@H](NC(=O)[C@H](CCCCN)NC(=O)[C@@H](NC(=O)[C@H](CC(N)=O)NC(=O)[C@@H](NC(=O)[C@@H](NC(=O)[C@@H](NC(=O)CN)C(C)C)[C@@H](C)CC)[C@@H](C)CC)C(C)C)CSSC[C@@H]2NC(=O)[C@H](CCCCN)NC(=O)CNC(=O)[C@H](Cc3ccccc3)NC(=O)[C@H](CCCNC(=N)N)NC(=O)[C@H](CCSC)NC(=O)[C@H](CCCNC(=N)N)NC(=O)[C@H](C)NC(=O)[C@H](CCCCN)NC(=O)[C@H](CCCCN)NC(=O)[C@@H]3CSSC[C@@H](C(=O)N[C@H](C(=O)N4CCC[C@H]4C(=O)N[C@@H](CCCCN)C(=O)O)[C@@H](C)O)NC(=O)[C@H](Cc4c[nH]cn4)NC(=O)[C@H](CSSC[C@H](NC(=O)[C@H](CCC(N)=O)NC(=O)[C@H](CCCNC(=N)N)NC(=O)[C@H](CO)NC1=O)C(=O)N[C@@H](CC(C)C)C(=O)N[C@@H](CCC(=O)O)C(=O)N1CCC[C@H]1C(=O)N3)NC(=O)[C@H](CCCCN)NC(=O)CNC(=O)[C@H](CC(N)=O)NC(=O)[C@H](CCSC)NC2=O [G22R] (H-GVIINVKCKISRQCLEPCKKARMRFGKCMNGKCHCTPK-OH; disulfide 8-28, 14-33, 18-35) | 0.349 nM | 0.292 nM |
| CC[C@H](C)[C@@H]1NC(=O)[C@H](CCCCN)NC(=O)[C@@H](NC(=O)[C@H](CCCCN)NC(=O)[C@@H](NC(=O)[C@H](CC(N)=O)NC(=O)[C@@H](NC(=O)[C@@H](NC(=O)[C@@H](NC(=O)CN)C(C)C)[C@@H](C)CC)[C@@H](C)CC)C(C)C)CSSC[C@@H]2NC(=O)[C@H](CCCCN)NC(=O)CNC(=O)[C@H](Cc3ccccc3)NC(=O)[C@H](CCCNC(=N)N)NC(=O)[C@H](CCSC)NC(=O)CNC(=O)[C@H](C)NC(=O)[C@H](CCCCN)NC(=O)[C@H](CCCCN)NC(=O)[C@@H]3CSSC[C@@H](C(=O)N[C@H](C(=O)N4CCC[C@H]4C(=O)N[C@@H](CCCCN)C(=O)O)[C@@H](C)O)NC(=O)[C@H](Cc4c[nH]cn4)NC(=O)[C@H](CSSC[C@H](NC(=O)[C@H](CCC(N)=O)NC(=O)[C@H](CCCNC(=N)N)NC(=O)[C@H](CO)NC1=O)C(=O)N[C@@H](CC(C)C)C(=O)N[C@@H](CCC(=O)O)C(=O)N[C@@H](Cc1cccc4ccccc14)C(=O)N3)NC(=O)[C@H](CCCCN)NC(=O)CNC(=O)[C@H](CC(N)=O)NC(=O)[C@H](CCSC)NC2=O [P17Nal] (H-GVIINVKCKISRQCLE[1Nal]CKKAGMRFGKCMNGKCHCTPK-OH; disulfide 8-28, 14-33, 18-35) | 0.357 nM | 0.193 nM |
| CC[C@H](C)[C@@H]1NC(=O)[C@H](CCCCN)NC(=O)[C@@H](NC(=O)[C@H](CCCCN)NC(=O)[C@@H](NC(=O)[C@H](CC(N)=O)NC(=O)[C@@H](NC(=O)[C@@H](NC(=O)[C@@H](NC(=O)CN)C(C)C)[C@@H](C)CC)[C@@H](C)CC)C(C)C)CSSC[C@@H]2NC(=O)[C@H](Cc3cccc4ccccc34)NC(=O)CNC(=O)[C@H](Cc3ccccc3)NC(=O)[C@H](CCCNC(=N)N)NC(=O)[C@H](CCSC)NC(=O)CNC(=O)[C@H](C)NC(=O)[C@H](CCCCN)NC(=O)[C@H](CCCCN)NC(=O)[C@@H]3CSSC[C@@H](C(=O)N[C@H](C(=O)N4CCC[C@H]4C(=O)N[C@@H](CCCCN)C(=O)O)[C@@H](C)O)NC(=O)[C@H](Cc4c[nH]cn4)NC(=O)[C@H](CSSC[C@H](NC(=O)[C@H](CCC(N)=O)NC(=O)[C@H](CCCNC(=N)N)NC(=O)[C@H](CO)NC1=O)C(=O)N[C@@H](CC(C)C)C(=O)N[C@@H](CCC(=O)O)C(=O)N1CCC[C@H]1C(=O)N3)NC(=O)[C@H](CCCCN)NC(=O)CNC(=O)[C@H](CC(N)=O)NC(=O)[C@H](CCSC)NC2=O [K27Nal] (H-GVIINVKCKISRQCLEPCKKAGMRFG[1Nal]CMNGKCHCTPK-OH; disulfide 8-28, 14-33, 18-35) | 27 nM | 15 nM |
| CC[C@H](C)[C@@H]1NC(=O)[C@H](CCCCN)NC(=O)[C@@H](NC(=O)[C@H](CCCCN)NC(=O)[C@@H](NC(=O)[C@H](CC(N)=O)NC(=O)[C@@H](NC(=O)[C@@H](NC(=O)[C@@H](NC(=O)CN)C(C)C)[C@@H](C)CC)[C@@H](C)CC)C(C)C)CSSC[C@@H]2NC(=O)[C@H](CCCCN)NC(=O)CNC(=O)[C@H](Cc3ccccc3)NC(=O)[C@H](CCCNC(=N)N)NC(=O)[C@H](CCSC)NC(=O)CNC(=O)[C@H](C)NC(=O)[C@H](CCCNC(=N)N)NC(=O)[C@H](CCCCN)NC(=O)[C@@H]3CSSC[C@@H](C(=O)N[C@H](C(=O)N4CCC[C@H]4C(=O)N[C@@H](CCCCN)C(=O)O)[C@@H](C)O)NC(=O)[C@H](Cc4c[nH]cn4)NC(=O)[C@H](CSSC[C@H](NC(=O)[C@H](CCC(N)=O)NC(=O)[C@H](CCCNC(=N)N)NC(=O)[C@H](CO)NC1=O)C(=O)N[C@@H](CC(C)C)C(=O)N[C@@H](CCC(=O)O)C(=O)N1CCC[C@H]1C(=O)N3)NC(=O)[C@H](CCCCN)NC(=O)CNC(=O)[C@H](CC(N)=O)NC(=O)[C@H](CCSC)NC2=O [K20R] (H-GVIINVKCKISRQCLEPCKRAGMRFGKCMNGKCHCTPK-OH; disulfide 8-28, 14-33, 18-35) | 0.083 nM | 0.067 nM |
| CC[C@H](C)[C@@H]1NC(=O)[C@H](CCCCN)NC(=O)[C@@H](NC(=O)[C@H](CCCCN)NC(=O)[C@@H](NC(=O)[C@H](CC(N)=O)NC(=O)[C@@H](NC(=O)[C@@H](NC(=O)[C@@H](NC(=O)CN)C(C)C)[C@@H](C)CC)[C@@H](C)CC)C(C)C)CSSC[C@@H]2NC(=O)[C@H](CCCCN)NC(=O)CNC(=O)[C@H](Cc3ccccc3)NC(=O)[C@H](CCCNC(=N)N)NC(=O)[C@H](CCSC)NC(=O)CNC(=O)[C@H](C)NC(=O)[C@H](CCCCN)NC(=O)[C@H](CCCCN)NC(=O)[C@@H]3CSSC[C@@H](C(=O)N[C@H](C(=O)N4CCC[C@H]4C(=O)N[C@@H](CCCCN)C(=O)O)[C@@H](C)O)NC(=O)[C@H](Cc4c[nH]cn4)NC(=O)[C@H](CSSC[C@H](NC(=O)[C@H](CCCNC(=N)N)NC(=O)[C@H](CCCNC(=N)N)NC(=O)[C@H](CO)NC1=O)C(=O)N[C@@H](CC(C)C)C(=O)N[C@@H](CCC(=O)O)C(=O)N1CCC[C@H]1C(=O)N3)NC(=O)[C@H](CCCCN)NC(=O)CNC(=O)[C@H](CC(N)=O)NC(=O)[C@H](CCSC)NC2=O [Q13R] (H-GVIINVKCKISRRCLEPCKKAGMRFGKCMNGKCHCTPK-OH; disulfide 8-28, 14-33, 18-35) | 0.172 nM | 0.16 nM |
| CC[C@H](C)[C@@H]1NC(=O)[C@H](C)NC(=O)[C@@H](NC(=O)[C@H](CCCCN)NC(=O)[C@@H](NC(=O)[C@H](CC(N)=O)NC(=O)[C@@H](NC(=O)[C@@H](NC(=O)[C@@H](NC(=O)CN)C(C)C)[C@@H](C)CC)[C@@H](C)CC)C(C)C)CSSC[C@@H]2NC(=O)[C@H](CCCCN)NC(=O)CNC(=O)[C@H](Cc3ccccc3)NC(=O)[C@H](CCCNC(=N)N)NC(=O)[C@H](CCSC)NC(=O)CNC(=O)[C@H](C)NC(=O)[C@H](CCCCN)NC(=O)[C@H](CCCCN)NC(=O)[C@@H]3CSSC[C@@H](C(=O)N[C@H](C(=O)N4CCC[C@H]4C(=O)N[C@@H](CCCCN)C(=O)O)[C@@H](C)O)NC(=O)[C@H](Cc4c[nH]cn4)NC(=O)[C@H](CSSC[C@H](NC(=O)[C@H](CCC(N)=O)NC(=O)[C@H](CCCNC(=N)N)NC(=O)[C@H](CO)NC1=O)C(=O)N[C@@H](CC(C)C)C(=O)N[C@@H](CCC(=O)O)C(=O)N1CCC[C@H]1C(=O)N3)NC(=O)[C@H](CCCCN)NC(=O)CNC(=O)[C@H](CC(N)=O)NC(=O)[C@H](CCSC)NC2=O [K9A] (H-GVIINVKCAISRQCLEPCKKAGMRFGKCMNGKCHCTPK-OH; disulfide 8-28, 14-33, 18-35) | 0.0711 nM | 0.0796 nM |
